Results reported in patent US8969565B2, “Imidazo[1,2-b]pyridazine-based compounds, compositions comprising them, and methods of their use” (Lexicon Pharmaceuticals, Inc., priority 2012, dated 2015).

Target: T1, AAK1 (Homo sapiens, UniProt Q2M2I8)
T1 construct: HA; expressed in transfected cells; host or cells: HEK293F
Test: P81 filter plate assay
Assay type: biochemical
Settings: full-length human AAK1, Mu2 substrate
Procedure: Compounds were serially diluted into a Labcyte LDV plate (Labcyte, cat#LP-0200) using a Mutiprobe (PerkinElmer) and Biomek FX (Beckman Coulter) so that the highest compound concentration was at 96 μM. Compounds were then pinged (75 nL per well) into a Greiner 384-well reaction plate (Greiner, #781076) using an ECHO 550 Liquid Handler (Labcyte). A total of 12 μl reaction buffer (IMAP buffer containing Tween and DTT, from Molecular Devices) was then added to each well of columns 1 and 13 for the negative controls and 12 μl of 2×AAK1 (0.2 nM full-length human protein, NCBI accession no. NP_055726.2) was added to the remaining wells. Enzyme was then pre-incubated with compound for 10 minutes at RT. Reactions were initiated upon Minitrak (PerkinElmer) addition of 12 μl substrate mix containing 2×Mu2 (0.2 μM, full length human protein), 2× cold ATP (2 μM), and 1.3 μCi of hot ^33P-ATP. Reactions proceeded for one hour at RT. Meanwhile, Millipore 384-well P81 filter plates (Millipore, catalog #MZPHNOW10) were placed on a plate washer (Zoom ZW, from Titertek) and pre-wet with 50 μl 1% phosphoric acid. Kinase reactions were then stopped upon addition of 24 μl of 2% phosphoric acid to each well and the Minitrak was then used to transfer 40 μl from each well into the pre-wet Millipore 384-well P81 filter plates. Reaction mixtures were incubated for 10 minutes at RT in the P81 plates, followed by washing five times with 100 μl/well of 1% phosphoric acid using the Zoom filter washer. The bottom of each filter plate was sealed followed by addition of 20 μl Microscint 40 to each well, sealing the top of the plates with Flashplate cover, and then waiting one hour until reading on the TopCount (PerkinElmer).

T1 sequence (Q2M2I8 1-863 isoform Q2M2I8-2): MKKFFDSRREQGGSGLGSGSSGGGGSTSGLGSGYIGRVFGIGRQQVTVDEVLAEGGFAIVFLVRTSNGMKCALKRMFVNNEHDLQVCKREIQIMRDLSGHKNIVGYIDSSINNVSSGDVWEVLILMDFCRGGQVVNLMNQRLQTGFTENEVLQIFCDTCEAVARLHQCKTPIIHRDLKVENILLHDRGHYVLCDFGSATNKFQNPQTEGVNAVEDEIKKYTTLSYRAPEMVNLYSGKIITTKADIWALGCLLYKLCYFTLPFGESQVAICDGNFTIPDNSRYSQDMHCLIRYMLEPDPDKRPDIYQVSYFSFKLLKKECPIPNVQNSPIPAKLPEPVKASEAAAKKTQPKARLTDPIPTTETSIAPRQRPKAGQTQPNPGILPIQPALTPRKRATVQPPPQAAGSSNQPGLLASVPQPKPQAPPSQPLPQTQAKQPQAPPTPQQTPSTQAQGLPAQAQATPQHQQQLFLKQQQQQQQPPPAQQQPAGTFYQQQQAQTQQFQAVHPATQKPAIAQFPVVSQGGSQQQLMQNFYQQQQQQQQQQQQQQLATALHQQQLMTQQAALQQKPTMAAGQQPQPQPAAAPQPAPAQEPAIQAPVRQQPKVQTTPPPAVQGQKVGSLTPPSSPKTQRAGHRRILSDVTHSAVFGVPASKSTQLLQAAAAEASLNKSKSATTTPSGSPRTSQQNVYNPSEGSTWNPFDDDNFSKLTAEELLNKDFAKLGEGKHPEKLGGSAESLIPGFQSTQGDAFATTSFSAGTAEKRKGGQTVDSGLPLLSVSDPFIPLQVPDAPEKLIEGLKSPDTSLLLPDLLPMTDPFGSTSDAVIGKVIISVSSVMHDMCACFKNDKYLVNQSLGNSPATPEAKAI

Row | Compound | IC50
1 | Cc1cnc2ccc(N3CCN(C(=O)[C@@H](N)C(C)C)CC3)nn12 [(S)-2-amino-3-methyl-1-(4-(3-methylimidazo[1,2-b]pyridazin-6-yl)piperazin-1-yl)butan-1-one] | ≤ 10 nM
2 | CC(C)OC(=O)N1CCC[C@H]1COc1ccc2ncc(-c3cccnc3O)n2n1 [(S)-isopropyl 2-(((3-(2-hydroxypyridin-3-yl)imidazo[1,2-b]pyridazin-6-yl)oxy)methyl)pyrrolidine-1-carboxylate] | ≤ 100 nM
3 | O=C(OCC1CC1)N1CCC[C@H]1CNc1ccc2ncc(Br)n2n1 [(S)-cyclopropylmethyl 2-(((3-bromoimidazo[1,2-b]pyridazin-6-yl)amino)methyl)pyrrolidine-1-carboxylate] | ≤ 10 nM
4 | CN(C(=O)CC(F)(F)F)[C@H]1CCN(c2ccc3ncc(-c4cccnc4O)n3n2)C1 [(S)-3,3,3-trifluoro-N-(1-(3-(2-hydroxypyridin-3-yl)imidazo[1,2-b]pyridazin-6-yl)pyrrolidin-3-yl)-N-methylpropanamide] | ≤ 10 nM
5 | O=C(OCC1CC1)N1CCC[C@H]1CNc1ccc2ncc(-c3ccncc3)n2n1 [(S)-cyclopropylmethyl 2-(((3-(pyridin-4-yl)imidazo[1,2-b]pyridazin-6-yl)amino)methyl)pyrrolidine-1-carboxylate] | ≤ 10 nM
6 | Cc1ccc(-c2cnc3ccc(N4CC[C@H](N(C)C(=O)OC(C)C)C4)nn23)c(=O)n1C [(S)-isopropyl (1-(3-(1,6-dimethyl-2-oxo-1,2-dihydropyridin-3-yl)imidazo[1,2-b]pyridazin-6-yl)pyrrolidin-3-yl)(methyl)carbamate] | ≤ 100 nM
7 | CN(C(=O)CC1CC1)[C@H]1CCN(c2ccc3ncc(-c4cccnc4O)n3n2)C1 [(S)-2-cyclopropyl-N-(1-(3-(2-hydroxypyridin-3-yl)imidazo[1,2-b]pyridazin-6-yl)pyrrolidin-3-yl)-N-methylacetamide] | ≤ 10 nM
8 | OCc1ccc(-c2cnc3ccc(NCCOC4CCCC4)nn23)cc1 [(4-(6-((2-(cyclopentyloxy)ethyl)amino)imidazo[1,2-b]pyridazin-3-yl)phenyl)methanol] | ≤ 10 nM
9 | COCCO[C@H]1CCN(c2ccc3ncc(-c4cccnc4OC)n3n2)C1 [(S)-6-(3-(2-methoxyethoxy)pyrrolidin-1-yl)-3-(2-methoxypyridin-3-yl)imidazo[1,2-b]pyridazine] | ≤ 1000 nM
10 | CC(C)CC(=O)N1CCC[C@H]1CNc1ccc2ncc(-c3ccnc(F)c3)n2n1 [(S)-1-(2-(((3-(2-fluoropyridin-4-yl)imidazo[1,2-b]pyridazin-6-yl)amino)methyl)pyrrolidin-1-yl)-3-methylbutan-1-one] | ≤ 10 nM
11 | COc1ncccc1-c1cnc2ccc(N3CC(N(C)C(=O)OC(C)(C)C)C3)nn12 [tert-butyl (1-(3-(2-methoxypyridin-3-yl)imidazo[1,2-b]pyridazin-6-yl)azetidin-3-yl)(methyl)carbamate] | ≤ 1000 nM
12 | Cc1ccc(-c2cnc3ccc(NCCOC4CCCC4)nn23)s1 [N-(2-(cyclopentyloxy)ethyl)-3-(5-methylthiophen-2-yl)imidazo[1,2-b]pyridazin-6-amine] | ≤ 100 nM
13 | CC(C)OC(=O)N(C)[C@H]1CCN(c2ccc3ncc(-c4ccncc4)n3n2)C1 [(S)-isopropyl methyl(1-(3-(pyridin-4-yl)imidazo[1,2-b]pyridazin-6-yl)pyrrolidin-3-yl)carbamate] | ≤ 100 nM
14 | N#Cc1cnc2ccc(NC[C@@H]3CCCN3C(=O)OC3CCCC3)nn12 [(S)-cyclopentyl 2-(((3-cyanoimidazo[1,2-b]pyridazin-6-yl)amino)methyl)pyrrolidine-1-carboxylate] | ≤ 10 nM
15 | COCCO[C@H]1CCN(c2ccc3ncc(-c4ccc(C)nc4OC)n3n2)C1 [(S)-3-(2-methoxy-6-methylpyridin-3-yl)-6-(3-(2-methoxyethoxy)pyrrolidin-1-yl)imidazo[1,2-b]pyridazine] | ≤ 100 nM
16 | COCC(=O)N(C)[C@H]1CCN(c2ccc3ncc(-c4cccnc4O)n3n2)C1 [(S)-N-(1-(3-(2-hydroxypyridin-3-yl)imidazo[1,2-b]pyridazin-6-yl)pyrrolidin-3-yl)-2-methoxy-N-methylacetamide] | ≤ 1000 nM
17 | CC(C)CC(=O)N(C)[C@H]1CCN(c2ccc3ncc(-c4cccnc4O)n3n2)C1 [(S)-N-(1-(3-(2-hydroxypyridin-3-yl)imidazo[1,2-b]pyridazin-6-yl)pyrrolidin-3-yl)-N,3-dimethylbutanamide] | ≤ 100 nM
18 | CCCC(=O)N(C)[C@H]1CCN(c2ccc3ncc(-c4cccnc4)n3n2)C1 [(S)-N-methyl-N-(1-(3-(pyridin-3-yl)imidazo[1,2-b]pyridazin-6-yl)pyrrolidin-3-yl)butyramide] | ≤ 1000 nM

Row | Compound | IC50
19 | Cc1csc(-c2cnc3ccc(NCCOC4CCCC4)nn23)c1 [N-(2-(cyclopentyloxy)ethyl)-3-(4-methylthiophen-2-yl)imidazo[1,2-b]pyridazin-6-amine] | ≤ 100 nM
20 | COc1cnccc1-c1cnc2ccc(NC3CCCCC3)nn12 [N-cyclohexyl-3-(3-methoxypyridin-4-yl)imidazo[1,2-b]pyridazin-6-amine] | ≤ 10 nM
21 | CN(C(=O)N1CCCC1)[C@H]1CCN(c2ccc3ncc(-c4ccncc4)n3n2)C1 [(S)-N-methyl-N-(1-(3-(pyridin-4-yl)imidazo[1,2-b]pyridazin-6-yl)pyrrolidin-3-yl)pyrrolidine-1-carboxamide] | ≤ 100 nM
22 | COCCO[C@H]1CCN(c2ccc3ncc(-c4cc(C)cnc4OC)n3n2)C1 [(S)-3-(2-methoxy-5-methylpyridin-3-yl)-6-(3-(2-methoxyethoxy)pyrrolidin-1-yl)imidazo[1,2-b]pyridazine] | ≤ 1000 nM
23 | CCCC(=O)N1CCC[C@H]1CNc1ccc2ncc(-c3ccncc3)n2n1 [(S)-1-(2-(((3-(pyridin-4-yl)imidazo[1,2-b]pyridazin-6-yl)amino)methyl)pyrrolidin-1-yl)butan-1-one] | ≤ 10 nM
24 | O=C(OC1CCOC1)N1CCC[C@H]1CNc1ccc2ncc(Br)n2n1 (stereo partly drawn) [(2S)-tetrahydrofuran-3-yl 2-(((3-bromoimidazo[1,2-b]pyridazin-6-yl)amino)methyl)pyrrolidine-1-carboxylate] | ≤ 10 nM
25 | COc1ncccc1-c1cnc2ccc(N3CC[C@H](O)C3)nn12 [(S)-1-(3-(2-methoxypyridin-3-yl)imidazo[1,2-b]pyridazin-6-yl)pyrrolidin-3-ol] | ≤ 1000 nM
26 | CN(C(=O)OC(C)(C)C)[C@H]1CCN(c2ccc3ncc(-c4cccnc4)n3n2)C1 [(S)-tert-butyl methyl(1-(3-(pyridin-3-yl)imidazo[1,2-b]pyridazin-6-yl)pyrrolidin-3-yl)carbamate] | ≤ 10 nM
27 | CN(C(=O)C1CCCC1)[C@H]1CCN(c2ccc3ncc(-c4cccnc4O)n3n2)C1 [Cyclopentanecarboxylic acid {(S)-1-[3-(2-hydroxy-pyridin-3-yl)-imidazo[1,2-b]pyridazin-6-yl]-pyrrolidin-3-yl}-methyl-amide] | ≤ 100 nM
28 | COC(=O)c1cnn(-c2ccc3ncc(-c4cccnc4OC)n3n2)c1 [methyl 1-(3-(2-methoxypyridin-3-yl)imidazo[1,2-b]pyridazin-6-yl)-1H-pyrazole-4-carboxylate] | ≤ 10 nM
29 | CC(C)OC(=O)N(C)[C@H]1CCN(c2ccc3ncc(-c4cccnc4OC(F)F)n3n2)C1 [(S)-isopropyl (1-(3-(2-(difluoromethoxy)pyridin-3-yl)imidazo[1,2-b]pyridazin-6-yl)pyrrolidin-3-yl)(methyl)carbamate] | ≤ 10 nM
30 | O=C(OC1CCOC1)N1CCC[C@H]1CNc1ccc2ncc(-c3ccncc3)n2n1 (stereo partly drawn) [(2S)-tetrahydrofuran-3-yl 2-(((3-(pyridin-4-yl)imidazo[1,2-b]pyridazin-6-yl)amino)methyl)pyrrolidine-1-carboxylate] | ≤ 10 nM
31 | c1cc(-c2cnc3ccc(NCCOC4CCCC4)nn23)cs1 [N-(2-(cyclopentyloxy)ethyl)-3-(thiophen-3-yl)imidazo[1,2-b]pyridazin-6-amine] | ≤ 100 nM
32 | c1csc(-c2cnc3ccc(NCCOC4CCCC4)nn23)c1 [N-(2-(cyclopentyloxy)ethyl)-3-(thiophen-2-yl)imidazo[1,2-b]pyridazin-6-amine] | ≤ 10 nM
33 | CC(C)C[C@H](N)C(=O)N1CCN(c2ccc3ncc(Cl)n3n2)CC1 [(S)-2-amino-1-(4-(3-chloroimidazo[1,2-b]pyridazin-6-yl)piperazin-1-yl)-4-methylpentan-1-one] | ≤ 100 nM
34 | CC(C)CC(=O)N1CCC[C@H]1CNc1ccc2ncc(C3=CCCC3)n2n1 [(S)-1-(2-(((3-(cyclopent-1-en-1-yl)imidazo[1,2-b]pyridazin-6-yl)amino)methyl)pyrrolidin-1-yl)-3-methylbutan-1-one] | ≤ 10 nM
35 | CC(C)(C)CCN1C(=O)CC[C@H]1CNc1ccc2ncc(-c3ccncc3)n2n1 [(S)-1-(3,3-dimethylbutyl)-5-(((3-(pyridin-4-yl)imidazo[1,2-b]pyridazin-6-yl)amino)methyl)pyrrolidin-2-one] | ≤ 10 nM
36 | CCCC(=O)N(C)[C@H]1CCN(c2ccc3ncc(Br)n3n2)C1 [(S)-N-(1-(3-bromoimidazo[1,2-b]pyridazin-6-yl)pyrrolidin-3-yl)-N-methylbutyramide] | ≤ 1000 nM
